Test results published in US8299021B2, “Macrocyclic inhibitors of hepatitis C virus replication” (InterMune, Inc., priority 2005, dated 2012).
Like-named read-outs stand apart in the source and are kept apart here.

Experiments:
[1] = test system: HCV sub-genomic replicon GS4.3 (HuH-7 hepatoma cells); assay: Quantitation by ELISA of neomycin phosphotransferase II (NPTII) in the HCV sub-genomic replicon, GS4.3; format: cell-based
Text: Quantitation by ELISA of the Selectable Marker Protein, Neomycin Phosphotransferase II (NPTII) in the HCV Sub-Genomic Replicon, GS4.3
The HCV sub-genomic replicon (1377/NS3-3′, accession No. AJ242652), stably maintained in HuH-7 hepatoma cells, was created by Lohmann et al. Science 285: 110-113 (1999). The replicon-containing cell culture, designated GS4.3, was obtained from Dr. Christoph Seeger of the Institute for Cancer Research, Fox Chase Cancer Center, Philadelphia, Pa.
GS4.3 cells were maintained at 37° C., 5% CO2, in DMEM (Gibco 11965-092) supplemented with L-glutamine 200 mM (100×) (Gibco25030-081), non-essential amino acids (NEAA)(Biowhittaker 13-114E), heat-inactivated (HI) Fetal Bovine Serum(FBS)(Hyclone SH3007.03) and […] geneticin (G418)(Gibco 10131-035). Cells were sub-divided 1:3 or 4 every 2-3 days.
24 h prior to the assay, GS4.3 cells were collected, counted, and plated in 96-well plates (Costar 3585) at 7500 cells/well in 100 μl standard maintenance medium (above) and incubated in the conditions above. To initiate the assay, culture medium was removed, cells were washed once with PBS (Gibco 10010-023) and 90 μl Assay Medium (DMEM, L-glutamine, NEAA, 10% HI FBS, no G418) was added. Inhibitors were made as a 10× stock in Assay Medium, (3-fold dilutions from 10 μM to […] final concentration, final DMSO concentration 1%), 10 μl were added to duplicate wells, plates were rocked to mix, and incubated as above for 72 h.
An NPTII Elisa kit was obtained from AGDIA, Inc. (Compound direct ELISA test system for Neomycin Phosphotransferase II, PSP 73000/4800). Manufacturer's instructions were followed, with some modifications. 10×PEB-1 lysis buffer was made up to include 500 μM PMSF (Sigma P7626, 50 mM stock in isopropanol). After 72 h incubation, cells were washed once with PBS and 150 μlPEB-1 with PMSF was added per well. Plates were agitated vigorously for 15 minutes, room temperature, then frozen at −70° C. Plates were thawed, lysates were mixed thoroughly, and 100 μl were applied to an NPTII Elisa plate. A standard curve was made. Lysate from DMSO-treated control cells was pooled, serially diluted with PEB-1 with PMSF, and applied to duplicate wells of the ELISA plate, in a range of initial lysate amount of 150 ul-2.5 ul. In addition, 100 μl buffer alone was applied in duplicate as a blank. Plates were sealed and gently agitated at room temperature for 2 h. Following capture incubation, the plates were washed 5×300 μlwith PBS-T (0.5% Tween-20, PBS-T was supplied in the ELISA kit). For detection, a 1× dilution of enzyme conjugate diluent MRS-2 (5×) was made in PBS-T, into which 1:100 dilutions of enzyme conjugates A and B were added, as per instructions. Plates were resealed, and incubated with agitation, covered, room temperature, for 2 h. The washing was then repeated and 100 μlof room temperature TMB substrate was added. After approximately 30 minutes incubation (room temperature, agitation, covered), the reaction was stopped with 50 μl 3M sulfuric acid. Plates were read at 450 nm on a Molecular Devices Versamax plate reader.
Inhibitor effect was expressed as a percentage of DMSO-treated control signal, and inhibition curves were calculated using a 4-parameter equation: y=A+4B-A)/(1+((C/x)^13))), where C is half-maximal activity or EC50.

[2] = target: T1, NS3-NS4 protease (full-length NS3/NS4A-2) (Hepatitis C virus genotype 1a, UniProt P27958); assay: NS3-NS4 protease assay / NS3 inhibition assay (RETS1 substrate, fluorescence kinetic read); format: biochemical; conditions: read-out: NS3-NS4 IC50
T1 construct: Recombinant E. coli or Baculovirus full-length NS3 was diluted to 3.33 μM with assay buffer; made in house; host or cells: E. coli or baculovirus (insect cells)
T1 sequence (P27958 1027-1657): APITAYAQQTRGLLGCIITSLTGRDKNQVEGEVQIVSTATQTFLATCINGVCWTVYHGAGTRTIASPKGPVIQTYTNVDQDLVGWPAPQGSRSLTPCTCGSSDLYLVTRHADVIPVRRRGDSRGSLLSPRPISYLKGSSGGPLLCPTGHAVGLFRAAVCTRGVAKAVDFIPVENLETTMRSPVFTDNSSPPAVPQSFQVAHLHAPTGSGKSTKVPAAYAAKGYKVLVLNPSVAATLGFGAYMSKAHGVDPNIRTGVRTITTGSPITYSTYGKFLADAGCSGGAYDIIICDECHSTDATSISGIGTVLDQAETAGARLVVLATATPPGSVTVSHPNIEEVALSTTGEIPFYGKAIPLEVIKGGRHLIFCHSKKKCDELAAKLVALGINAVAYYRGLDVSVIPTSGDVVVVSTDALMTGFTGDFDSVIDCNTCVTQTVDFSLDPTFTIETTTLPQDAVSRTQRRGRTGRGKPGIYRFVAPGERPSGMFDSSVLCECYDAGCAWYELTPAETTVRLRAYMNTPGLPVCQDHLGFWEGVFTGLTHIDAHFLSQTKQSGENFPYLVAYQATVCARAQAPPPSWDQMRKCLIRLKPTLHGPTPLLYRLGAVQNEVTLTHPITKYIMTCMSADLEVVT
Experimental: NS3 complex formation with NS4A-2.
The appropriate amount of NS4A-2 to 8.3 mM in assay buffer was added to equal the volume of NS3 in step 2.1.1 (conversion factor—3.8 mg/272 μL assay buffer). The material was transferred to an eppendorf tube and place in water bath in 4° C. refrigerator.
After equilibration to 4° C., equal volumes of NS3 and NS4A-2 solutions were combined in an eppendorf tube, mix gently with a manual pipettor, and incubate mixture for 15 minutes in the 4° C. water bath.
After 15 minutes at 4° C., the NS3/NS4A-2 eppendorf tube was removed and place it in a room temperature water bath for 10 minutes. NS3/NS4A-2 was alliquoted at appropriate volumes and store at −80° C. (E. coli NS3 run at 2 nM in assay, aliquot at 25 μL. BV NS3 run at 3 nM in assay, aliquot at 30 μL).
Sample compounds were dissolved to 10 mM in DMSO then diluted to 2.5 mM (1:4) in DMSO.
The E. coli. […] Using the manual multichannel pipettor, careful not to introduce bubbles into the plate, add 50 μL assay buffer to wells A01-H01 of a black Costar 96-well polypropylene storage plate.
Using the manual multichannel pipettor, careful not to introduce bubbles into the plate, add 50 μL of diluted NS3/NS4A-2 from step 2.2.6 to wells A02-H12 of plate in step 2.2.7. Using the manual multichannel pipettor, careful not to introduce bubbles into the plate, transfer 25 μL of the wells in drug dilution plate in step 2.2.5 to corresponding wells in assay plate in step 2.2.8. Change tips on multichannel pipettor for each row of compounds transferred. Using the manual multichannel pipettor, careful not to introduce bubbles into the plate, mix the wells from the assay plate in step 2.2.9 by aspirating and dispensing 35 μL of the 75 μL in each well five times. Change tips on multichannel pipettor for each row of wells mixed. Cover plate with a polystyrene plate lid and pre-incubate the plate from step 2.2.10 containing NS3 protease and sample compounds 10 minutes at room temperature. While plate from step 2.2.11 is pre-incubating, dilute RETS1 substrate in a 15 mL polypropylene centrifuge tube.
After the plate in step is done pre-incubating, and using the manual multichannel, add 25 μL of substrate to all wells on the plate. Quickly mix the plate as in step 2.2.10, mixing 65 μL of the 100 μL in the wells.
Read the plate in kinetic mode on the Molecular Devices SpectraMax
IC50s are determined using a four parameter curve fit equation, and converted to Ki's using the following Km's:
where Ki=IC50/(1+[S]/Km))

[3] = Hepatitis C virus, Huh-7, GS4.3 cells, 72 h, read-out: Replicon EC50
[4] = GS4.3 cells, 72 h, read-out: Replicon EC50

Row | SMILES | EC50 ([1]; Hepatitis C virus, Huh-7, Table 26, read-out: EC50) | IC50 [2] | EC50 [1, 3] | EC50 [1, 4]
1 | CC(C)(C)OC(=O)N[C@H]1CCCCC/C=C\[C@@H]2C[C@@]2(C(=O)NS(=O)(=O)C2CC2)NC(=O)[C@@H]2CCCN2C1=O [Compound 2137, 1S,4R,6S,14S)tert-but 14-Cyclopropanesulfonylaminocarbonyl-2,15-dioxo-3,16-diaza-tricyclo[14.3.0.0^4,6]nonadec-7-ene-14-yl carbamate] | > 10000 nM | > 10000 nM | – | –
2 | O=C1N[C@]2(C(=O)NS(=O)(=O)C3CC3)C[C@H]2/C=C\CCCCC[C@H](NC(=O)C2(C(F)(F)F)CC2)C(=O)N2C[C@H](OC(=O)N3Cc4cccc(Cl)c4C3)C[C@@H]12 [Compound 265] | – | < 100 nM | < 100 nM | –
3 | C[C@@H](NC(=O)O[C@@H]1C[C@H]2C(=O)N[C@]3(C(=O)NS(=O)(=O)C4CC4)C[C@H]3/C=C\CCCCC[C@H](NC(=O)OC(C)(C)C)C(=O)N2C1)c1ccc(F)cn1 [Compound 150] | – | < 100 nM | – | > 10000 nM
4 | CC(C)(C)OC(=O)N[C@H]1CCCOC/C=C\[C@@H]2C[C@@]2(C(=O)NS(=O)(=O)C2CC2)NC(=O)[C@@H]2C[C@@H](OC(=O)N3Cc4cccc(F)c4C3)CN2C1=O [Compound 1021, (2R,6S,13aS,14aR,16aS,Z)-6-(tert-butoxycarbonylamino)-14a-(cyclopropylsulfonylcarbamoyl)-5,16-dioxo-2,3,5,6,7,8,9,11,13a,14,14a,15,16,16a-tetradecahydro-1H-cyclopropa(e)pyrrolo[2,1-i][1,7,10]oxadiazacyclopentadecin-2-yl 4-fluoroisoindoline-2-carboxylate] | – | < 10000 nM | – | > 10000 nM
5 | CC(C)(C)OC(=O)NC1CCCCC/C=C\[C@H]2C[C@@]2(C(=O)NS(=O)(=O)NCC(F)(F)F)NC(=O)C2CC(OC(=O)N3Cc4cccc(Cl)c4C3)CN2C1=O (single isomer, unassigned) [Compound 226] | – | < 100 nM | < 100 nM | –
6 | CC(C)(C)OC(=O)N[C@H]1CCCCC/C=C\[C@@H]2C[C@@]2(C(=O)NC(=O)c2ccccc2)NC(=O)[C@@H]2C[C@@H](OC(=O)N3Cc4ccccc4C3)CC2C1=O (stereo partly shown) [Compound 705] | – | < 100 nM | < 100 nM | –
7 | CC(C)(C)OC(=O)N[C@H]1CCN(S(=O)(=O)c2ccccc2[N+](=O)[O-])CC/C=C\[C@@H]2C[C@@]2(C(=O)O)NC(=O)[C@@H]2C[C@@H](OC(=O)N3Cc4cccc(F)c4C3)CN2C1=O [Compound 1029] | – | < 100 nM | < 10000 nM | –
8 | CC(C)(C)OC(=O)N[C@H]1CCCCC/C=C\[C@@H]2C[C@@]2(C(=O)NS(=O)(=O)C2CC2)NC(=O)C2C[C@@H](OC(=O)NCc3ccc(F)cn3)CN2C1=O (stereo partly shown) [Compound 152] | – | < 100 nM | > 10000 nM | –
9 | CC(C)(C)OC(=O)N[C@H]1CCCCC/C=C\[C@@H]2C[C@@]2(C(=O)O)NC(=O)C2C[C@@H](OC(=O)N3Cc4cccc(Cl)c4C3)CN2C1=O (stereo partly shown) [Compound 177] | – | < 100 nM | < 10000 nM | –
10 | CC(C)(C)OC(=O)N[C@H]1CCCCC/C=C\[C@@H]2C[C@@]2(C(=O)NS(=O)(=O)C2(C)CC2)NC(=O)[C@@H]2C[C@@H](OC(=O)N3Cc4ccccc4C3)CN2C1=O [Compound 100, (1S,4R,6S,14S,18R)-1,3-Dihydro-isoindole-2-carboxylic acid 14-tert-butoxycarbonylamino-4-(1-methylcyclopropane-1-sulfonyl)aminocarbonyl-2,15-dioxo-3,16-diaza-tricyclo[14.3.0.0^4,6]nonadec-7-en-18-yl Ester] | – | < 100 nM | < 100 nM | –
11 | CC(C)(C)OC(=O)N[C@H]1CCC(F)(F)CCCC[C@@H]2C[C@@]2(C(=O)NS(=O)(=O)C2CC2)NC(=O)[C@@H]2C[C@@H](OC(=O)N3Cc4cccc(F)c4C3)CN2C1=O [Compound 1010, (2R,6S,13aS,14aR,16aS,Z)-6-(tert-butoxycarbonylamino)-14a-(cyclopropylsulfonylcarbamoyl)-9,9-difluoro-5,16-dioxooctadecahydrocyclopropa (e) prrolo[1,2-a][1,4]diazacyclopentadecine 2-yl 4-fluoroisoindoline-2-carboxylate] | – | < 100 nM | < 100 nM | –
